According to PubChem BioAssay AID2060893 (Molecular Pharmacology Branch, DTP, NCI, 2025):

Test system: K86415-001-R-J1-PDC complex spheroids, viability
Experiment: Anticancer human tumor K86415-001-R-J1-PDC patient-derived lung adenocarcinoma cell line growth inhibition [RAS]
Conditions: for IC50: curve of first compound; for viability, T/C: stronger effect = lower value
Outline: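 Agents were tested in combination matrices in half-log decrements from a top concentration at or near clinical Cmax (10 microM if undetermined). Targets were multi-cell spheroids of tumour lines plus HUVEC and MSC stromal cells.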

[1] = second compound 0.000949 µM, first compound 0.0316 µM
[2] = second compound 0.000949 µM, first compound 0.1 µM
[3] = second compound 0.000949 µM, first compound 0.316 µM
[4] = second compound 0.000949 µM, first compound 1 µM
[5] = second compound 0.000949 µM, first compound 3.16 µM
[6] = second compound 0.000949 µM, first compound 10 µM
[7] = second compound 0.003 µM, first compound 0.0316 µM
[8] = second compound 0.003 µM, first compound 0.1 µM
[9] = second compound 0.003 µM, first compound 0.316 µM
[10] = second compound 0.003 µM, first compound 1 µM
[11] = second compound 0.003 µM, first compound 3.16 µM
[12] = second compound 0.003 µM, first compound 10 µM
[13] = second compound 0.00949 µM, first compound 0.0316 µM
[14] = second compound 0.00949 µM, first compound 0.1 µM
[15] = second compound 0.00949 µM, first compound 0.316 µM
[16] = second compound 0.00949 µM, first compound 1 µM
[17] = second compound 0.00949 µM, first compound 3.16 µM
[18] = second compound 0.00949 µM, first compound 10 µM
[19] = second compound 0.03 µM, first compound 0.0316 µM
[20] = second compound 0.03 µM, first compound 0.1 µM
[21] = second compound 0.03 µM, first compound 0.316 µM
[22] = second compound 0.03 µM, first compound 1 µM
[23] = second compound 0.03 µM, first compound 3.16 µM
[24] = second compound 0.03 µM, first compound 10 µM
[25] = second compound 0.0949 µM, first compound 0.0316 µM
[26] = second compound 0.0949 µM, first compound 0.1 µM
[27] = second compound 0.0949 µM, first compound 0.316 µM
[28] = second compound 0.0949 µM, first compound 1 µM
[29] = second compound 0.0949 µM, first compound 3.16 µM
[30] = second compound 0.0949 µM, first compound 10 µM
[31] = second compound 0.3 µM, first compound 0.0316 µM
[32] = second compound 0.3 µM, first compound 0.1 µM
[33] = second compound 0.3 µM, first compound 0.316 µM
[34] = second compound 0.3 µM, first compound 1 µM
[35] = second compound 0.3 µM, first compound 3.16 µM
[36] = second compound 0.3 µM, first compound 10 µM
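Also: spheroids exposed to agents for seven days before readout.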

## CC(=O)OC12COC1CC(O)C1(C)C(=O)C(O)C3=C(C)C(OC(=O)C(O)C(NC(=O)OC(C)(C)C)c4ccccc4)CC(O)(C(OC(=O)c4ccccc4)C21)C3(C)C (stereo unspecified) + CCn1c(-c2cccnc2C(C)OC)c2c3cc(ccc31)N1CCOC(CC(NC(=O)C(C(C)C)N(C)C(=O)C3(F)CCN(C(=O)C#CC(C)(C)N(C)C)CC3)C(=O)N3CCCC(N3)C(=O)OCC(C)(C)C2)C1
Second compound 0.000949 µM
  IC50: < 31.6 nM
Second compound 0.003 µM
  IC50: < 31.6 nM
Second compound 0.00949 µM
  IC50: < 31.6 nM
Second compound 0.03 µM
  IC50: < 31.6 nM
Second compound 0.0949 µM
  IC50: < 31.6 nM
Second compound 0.3 µM
  IC50: < 31.6 nM
[1]
  viability, T/C: 18.7%
[2]
  viability, T/C: 15.3%
[3]
  viability, T/C: 11.3%
[4]
  viability, T/C: 17.3%
[5]
  viability, T/C: 16.2%
[6]
  viability, T/C: 12.4%
[7]
  viability, T/C: 15.4%
[8]
  viability, T/C: 12%
[9]
  viability, T/C: 11.3%
[10]
  viability, T/C: 10.1%
[11]
  viability, T/C: 12.7%
[12]
  viability, T/C: 9.57%
[13]
  viability, T/C: 13.6%
[14]
  viability, T/C: 10.8%
[15]
  viability, T/C: 12.1%
[16]
  viability, T/C: 11.7%
[17]
  viability, T/C: 11.5%
[18]
  viability, T/C: 7.67%
[19]
  viability, T/C: 10.3%
[20]
  viability, T/C: 14.9%
[21]
  viability, T/C: 10.9%
[22]
  viability, T/C: 11.3%
[23]
  viability, T/C: 10.9%
[24]
  viability, T/C: 12.1%
[25]
  viability, T/C: 11.4%
[26]
  viability, T/C: 9.46%
[27]
  viability, T/C: 10.1%
[28]
  viability, T/C: 10.8%
[29]
  viability, T/C: 6.98%
[30]
  viability, T/C: 8.55%
[31]
  viability, T/C: 10.3%
[32]
  viability, T/C: 7.45%
[33]
  viability, T/C: 7.7%
[34]
  viability, T/C: 5.41%
[35]
  viability, T/C: 6.82%
[36]
  viability, T/C: 7.01%

## O=C(c1ccc(F)c(F)c1Nc1ccc(I)cc1F)N1CC(O)([C@@H]2CCCCN2)C1 + C=CC(=O)N1CCN(c2nc(OCC3CCCN3C)nc3c(F)c(-c4nc(N)cc(C)c4C(F)(F)F)c(Cl)cc23)C(C)C1
Second compound 0.00316 µM
  IC50: < 3.16 nM
Second compound 0.01 µM
  IC50: < 3.16 nM
Second compound 0.0316 µM
  IC50: < 3.16 nM
Second compound 0.1 µM
  IC50: < 3.16 nM
Second compound 0.316 µM
  IC50: < 3.16 nM
Second compound 1 µM
  IC50: < 3.16 nM
Second compound 0.00316 µM, first compound 0.00316 µM
  viability, T/C: 18.7%
Second compound 0.00316 µM, first compound 0.01 µM
  viability, T/C: 15.5%
Second compound 0.00316 µM, first compound 0.0316 µM
  viability, T/C: 11.7%
Second compound 0.00316 µM, first compound 0.1 µM
  viability, T/C: 11.2%
Second compound 0.00316 µM, first compound 0.316 µM
  viability, T/C: 6.3%
Second compound 0.00316 µM, first compound 1 µM
  viability, T/C: 3.59%
Second compound 0.01 µM, first compound 0.00316 µM
  viability, T/C: 10.7%
Second compound 0.01 µM, first compound 0.01 µM
  viability, T/C: 9.82%
Second compound 0.01 µM, first compound 0.0316 µM
  viability, T/C: 7.43%
Second compound 0.01 µM, first compound 0.1 µM
  viability, T/C: 7.21%
Second compound 0.01 µM, first compound 0.316 µM
  viability, T/C: 5.24%
Second compound 0.01 µM, first compound 1 µM
  viability, T/C: 2.8%
Second compound 0.0316 µM, first compound 0.00316 µM
  viability, T/C: 10.5%
Second compound 0.0316 µM, first compound 0.01 µM
  viability, T/C: 8.28%
Second compound 0.0316 µM, first compound 0.0316 µM
  viability, T/C: 7.31%
Second compound 0.0316 µM, first compound 0.1 µM
  viability, T/C: 5.71%
Second compound 0.0316 µM, first compound 0.316 µM
  viability, T/C: 6.7%
Second compound 0.0316 µM, first compound 1 µM
  viability, T/C: 2.39%
Second compound 0.1 µM, first compound 0.00316 µM
  viability, T/C: 9.48%
Second compound 0.1 µM, first compound 0.01 µM
  viability, T/C: 8.63%
Second compound 0.1 µM, first compound 0.0316 µM
  viability, T/C: 6.77%
Second compound 0.1 µM, first compound 0.1 µM
  viability, T/C: 5.29%
Second compound 0.1 µM, first compound 0.316 µM
  viability, T/C: 3.4%
Second compound 0.1 µM, first compound 1 µM
  viability, T/C: 2.5%
Second compound 0.316 µM, first compound 0.00316 µM
  viability, T/C: 9.04%
Second compound 0.316 µM, first compound 0.01 µM
  viability, T/C: 7.51%
Second compound 0.316 µM, first compound 0.0316 µM
  viability, T/C: 6.81%
Second compound 0.316 µM, first compound 0.1 µM
  viability, T/C: 5.26%
Second compound 0.316 µM, first compound 0.316 µM
  viability, T/C: 5.12%
Second compound 0.316 µM, first compound 1 µM
  viability, T/C: 1.9%
Second compound 1 µM, first compound 0.00316 µM
  viability, T/C: 10%
Second compound 1 µM, first compound 0.01 µM
  viability, T/C: 8.81%
Second compound 1 µM, first compound 0.0316 µM
  viability, T/C: 8.35%
Second compound 1 µM, first compound 0.1 µM
  viability, T/C: 5.6%
Second compound 1 µM, first compound 0.316 µM
  viability, T/C: 4.91%
Second compound 1 µM, first compound 1 µM
  viability, T/C: 2.61%

## NC1c2ccccc2OC12CCN(c1cnc3c(N4CCCc5ncccc54)n[nH]c3n1)CC2 (stereo unspecified) + CCn1c(-c2cc(N3CCN(C)CC3)cnc2C(C)OC)c2c3cc(ccc31)-c1csc(n1)CC(NC(=O)C1CC1C)C(=O)N1CCCC(N1)C(=O)OCC(C)(C)C2
Second compound 0.000949 µM
  IC50: < 31.6 nM
Second compound 0.003 µM
  IC50: < 31.6 nM
Second compound 0.00949 µM
  IC50: < 31.6 nM
Second compound 0.03 µM
  IC50: < 31.6 nM
Second compound 0.0949 µM
  IC50: < 31.6 nM
Second compound 0.3 µM
  IC50: < 31.6 nM
[1]
  viability, T/C: 17.9%
[2]
  viability, T/C: 13.2%
[3]
  viability, T/C: 7.58%
[4]
  viability, T/C: 9.76%
[5]
  viability, T/C: 9.06%
[6]
  viability, T/C: 7.7%
[7]
  viability, T/C: 9.27%
[8]
  viability, T/C: 8.67%
[9]
  viability, T/C: 6.53%
[10]
  viability, T/C: 6.35%
[11]
  viability, T/C: 4.86%
[12]
  viability, T/C: 5.29%
[13]
  viability, T/C: 7.91%
[14]
  viability, T/C: 5.02%
[15]
  viability, T/C: 5.89%
[16]
  viability, T/C: 4.63%
[17]
  viability, T/C: 5.75%
[18]
  viability, T/C: 4.91%
[19]
  viability, T/C: 5.17%
[20]
  viability, T/C: 4.43%
[21]
  viability, T/C: 5.11%
[22]
  viability, T/C: 5.46%
[23]
  viability, T/C: 3.67%
[24]
  viability, T/C: 5.21%
[25]
  viability, T/C: 3.52%
[26]
  viability, T/C: 4.51%
[27]
  viability, T/C: 4.52%
[28]
  viability, T/C: 3.8%
[29]
  viability, T/C: 3.7%
[30]
  viability, T/C: 4.75%
[31]
  viability, T/C: 4.69%
[32]
  viability, T/C: 4.26%
[33]
  viability, T/C: 4.59%
[34]
  viability, T/C: 3.96%
[35]
  viability, T/C: 4.65%
[36]
  viability, T/C: 4.77%
